Where “and” joins values, the source holds several entries; their conditions need not be identical. Identical values can stand only once.
Key:
Rattus norvegicus [1] = tested on: Rattus norvegicus
Mus musculus [2] = settings: oral, diet; for NOAEL (% diet): reproduction developmental, CD1
Rattus norvegicus [3] = settings: oral; for LD50: acute, gavage
Rattus norvegicus [4] = settings: oral
Mus musculus [5] = settings: oral
Rattus norvegicus [6] = settings: oral, gavage
Oryctolagus sp. = settings: acute; dermal
Rattus norvegicus [7] = settings: Hershberger, oral, gavage
[8] = chronic, duration: 2 years, oral, diet, M/F, increased levels of serum proteins and increased liver weight
[9] = subchronic, duration: 13 weeks, M, B6C3F1
[10] = subchronic, duration: 13 weeks, diet, Fischer 344
[11] = short-term, duration: 28 days, gavage, M, Sprague-Dawley, Clinical Observation: Spontaneous locomotion decrease, Respiratory rate decrease, Prone position Eyelid closure Staggering gait Incomplete …
[12] = developmental, duration: 1 days, gavage, M/F, NMRI, Developmental: Altered spontaneous behavior and habituation in adults exposed as neonates
[13] = developmental, duration: 42 days, gavage, M/F, CD1, Developmental: Decrease in number of pups per litter with no change in pup to implantation site ratio
[14] = developmental, duration: 16 days, F, Wistar, Developmental: 20% decrease in serum T4 levels in pups on PND 16/17 + Endocrine: 20-30% decreases in serum T4 levels in dams
[15] = reproduction developmental, duration: 56 days, M, Sprague-Dawley, Endocrine: Hypertrophy and hyperplasia of thyroid follicular cells in males
[16] = reproduction developmental, duration: 56 days, M, Sprague-Dawley, Renal: 31% increase in BUN in males
[17] = reproduction developmental, oral, M/F, reduced fertility index and reduced body weight of dams
[18] = developmental, duration: 14 days, gavage, M, NMRI, developmental
[19] = duration: 10 days, Wistar, active + Negative + Antiandrogenic + anti-androgenic
[20] = duration: 5 days, Sprague-Dawley, active + Antiandrogenic + anti-androgenic + PPS delayed by 5 days / single dose tested (liver wt?)

**Q.** `Cl` [Hydrochloric acid] was tested. Which LOAEL (Rattus norvegicus [1]; chronic, inhalation, M, hyperplasia of nasal mucosa larynx and trachea) did it give?
**A.** 15 mg/m3

**Q.** How did the LEL (Rattus norvegicus [1]; [8]) turn out when `CC(C)Oc1cc(-n2nc(C(C)(C)C)oc2=O)c(Cl)cc1Cl` [Oxadiazon] was run?
**A.** 5 mg/kg-day

**Q.** And the NOEL (Rattus norvegicus [1]; [8])?
**A.** 0.5 mg/kg-day

**Q.** `OCC(CO)(CBr)CBr` [Pentaerythritol dibromide] was tested. Which LOAEL (Mus musculus [2]; chronic, duration: 104 weeks, B6C3F1) did it give?
**A.** 57.7 mg/kg-day

**Q.** And the “NOAEL (% diet)” value (Mus musculus [2]; generation: F0)?
**A.** 0.1

**Q.** What about the “NOAEL (% diet)” value (Mus musculus [2]; generation: F1) of the same compound?
**A.** 0.1

**Q.** What about the “NOAEL (% diet)” value (Mus musculus [2]; generation: F2) of the same compound?
**A.** 0.1

**Q.** And the LOAEL (Mus musculus [2]; subchronic, duration: 13 weeks, F, B6C3F1)?
**A.** 123 mg/kg-day

**Q.** And the LOAEL (Mus musculus [2]; [9])?
**A.** 246 mg/kg-day

**Q.** And the NOAEL (Mus musculus [2]; [9])?
**A.** 123 mg/kg-day

**Q.** And the LD50 (Rattus norvegicus [3]; Crl:CD1)?
**A.** 1880 mg/kg

**Q.** And the LD50 (Rattus norvegicus [3]; Sprague-Dawley)?
**A.** > 2000 mg/kg

**Q.** And the LOAEL (Rattus norvegicus [3]; subchronic, duration: 3 months, diet, Fischer 344)?
**A.** 240 mg/kg-day

**Q.** What about the LOAEL (Rattus norvegicus [3]; [10]) of the same compound?
**A.** 240 mg/kg-day

**Q.** And the NOAEL (Rattus norvegicus [3]; [10])?
**A.** 120 mg/kg-day

**Q.** What about the NOAEL (Rattus norvegicus [4]; [11]) of the same compound?
**A.** 200 mg/kg-day

**Q.** And the NOEL (Rattus norvegicus [4]; [11])?
**A.** < 200 mg/kg-day

**Q.** And the NOEL (Rattus norvegicus [4]; subchronic, duration: 13 weeks, diet, F, Fischer 344, Body Weight Changes: decrease + Urinalysis: Total protein increase, Urine volume increase, Specific gravity decrease + Blood Chemistry: TP …)?
**A.** 100 mg/kg-day

**Q.** What about the NOEL (Rattus norvegicus [4]; subchronic, duration: 13 weeks, diet, M/F, Fischer 344, Body Weight Changes: decrease + Urinalysis: Total protein increase, Urine volume increase, Specific gravity decrease + Blood Chemistry: TP …) of the same compound?
**A.** < 120 mg/kg-day

**Q.** How did the LOAEL (Mus musculus [5]; [12]) turn out when `O=S(=O)(O)C(F)(F)C(F)(F)C(F)(F)C(F)(F)C(F)(F)C(F)(F)F` [Perfluorohexanesulfonic acid] was run?
**A.** 9.2 mg/kg-day

**Q.** What about the NOAEL (Mus musculus [5]; [12]) of the same compound?
**A.** 6.1 mg/kg-day

**Q.** What about the NOAEL (Mus musculus [5]; developmental, duration: 42 days, gavage, M/F, CD1) of the same compound?
**A.** 3 mg/kg-day

**Q.** And the LOAEL (Mus musculus [5]; [13])?
**A.** 1 mg/kg-day

**Q.** And the NOAEL (Mus musculus [5]; [13])?
**A.** 0.3 mg/kg-day

**Q.** And the NOAEL (Mus musculus [5]; developmental, duration: 42 days, gavage, M/F, CD1, Hepatic: Single cell necrosis and microvascular fatty changes at 3 mg/kg/day / centrilobular hepatocellular hypertrophy at ?0.3 mg/kg/day …)?
**A.** 1 mg/kg-day

**Q.** What about the LOAEL (Mus musculus [5]; reproduction developmental, duration: 42 days, gavage, M/F, CD1, Hepatic: Single cell necrosis and microvascular fatty changes at 3 mg/kg/day / centrilobular hepatocellular hypertrophy at ?0.3 mg/kg/day …) of the same compound?
**A.** 3 mg/kg-day

**Q.** And the NOAEL (Mus musculus [5]; short-term, duration: 7 days, gavage, M, Hepatic: Hepatocellular hypertrophy, steatosis, and increased hepatic triglyceride levels)?
**A.** 10 mg/kg-day

**Q.** And the NOAEL (Mus musculus [5]; subchronic, duration: 6 weeks, diet, M, Hepatic: Decreased plasma triglyceride, cholesterol, non-HDL cholesterol, and HDL cholesterol levels / increased hepatic triglyceride …)?
**A.** 6 mg/kg-day

**Q.** And the LOAEL (Rattus norvegicus [6]; [14])?
**A.** 5 mg/kg-day

**Q.** And the NOAEL (Rattus norvegicus [6]; [14])?
**A.** 0.05 mg/kg-day

**Q.** And the LOAEL (Rattus norvegicus [6]; developmental, duration: 16 days, F, Wistar, Developmental: 40% decrease in serum T4 levels in pups on PND 16 + Endocrine: 60% decreases in serum T4 levels in dams)?
**A.** 25 mg/kg-day

**Q.** And the NOAEL (Rattus norvegicus [6]; reproduction developmental, duration: 56 days, F, Sprague-Dawley, Hematological: 6% increase in prothrombin time in males at ?0.3 mg/kg/day / decreases in hemoglobin (4%), hematocrit (3%), and RBC levels (…)?
**A.** 10 mg/kg-day

**Q.** And the NOAEL (Rattus norvegicus [6]; reproduction developmental, duration: 56 days, M/F, Sprague-Dawley, Hepatic: Increased liver weight / centrilobular hepatocellular hypertrophy in males at ?3 mg/kg/day + Immunotoxicological: No histological …)?
**A.** 10 mg/kg-day

**Q.** And the LOAEL (Rattus norvegicus [6]; [15])?
**A.** 3 mg/kg-day

**Q.** What about the NOAEL (Rattus norvegicus [6]; [15]) of the same compound?
**A.** 1 mg/kg-day

**Q.** What about the LOAEL (Rattus norvegicus [6]; reproduction developmental, duration: 56 days, M, Sprague-Dawley, Hematological: 6% increase in prothrombin time in males at ?0.3 mg/kg/day / decreases in hemoglobin (4%), hematocrit (3%), and RBC levels (…) of the same compound?
**A.** 0.3 mg/kg-day

**Q.** And the LOAEL (Rattus norvegicus [6]; [16])?
**A.** 10 mg/kg-day

**Q.** What about the NOAEL (Rattus norvegicus [6]; [16]) of the same compound?
**A.** 3 mg/kg-day

**Q.** And the NOAEL (Rattus norvegicus [6]; short-term, duration: 16 days, F, Wistar)?
**A.** 45 mg/kg-day and 25 mg/kg-day

**Q.** How did the NOAEL (Rattus norvegicus [1]; subchronic, oral, diet, M/F, no effects) turn out when `COc1nc(NC(C)C)nc(NC(C)C)n1` [Prometon] was run?
**A.** 15 mg/kg-day

**Q.** `O=c1nc([O-])n(Cl)c(=O)n1Cl.[Na+]` [Sodium dichloroisocyanurate] was tested. Which LD50 (Oryctolagus sp.) did it give?
**A.** > 2000 mg/kg

**Q.** Which LEL (Rattus norvegicus [1]; [17]) does the source give for `Clc1cc(Cl)cc(C2(CC(Cl)(Cl)Cl)CO2)c1` (stereo not given) [Tridiphane] here?
**A.** 1.67 mg/kg-day

**Q.** What about the NOEL (Rattus norvegicus [1]; [17]) of the same compound?
**A.** 0.33 mg/kg-day

**Q.** How did the LOAEL (Mus musculus [5]; [18]) turn out when `Clc1ccc(C(c2ccc(Cl)cc2)C(Cl)Cl)cc1` [p,p'-DDD] was run?
**A.** 0.5 mg/kg-day

**Q.** What about the LOEL (Rattus norvegicus [7]; [19]) of the same compound?
**A.** 200 mg/kg-day

**Q.** What about the NOEL (Rattus norvegicus [7]; [19]) of the same compound?
**A.** 40 mg/kg-day

**Q.** With `ClC(Cl)=C(c1ccc(Cl)cc1)c1ccc(Cl)cc1` [p,p'-DDE] as the compound, how does the LOAEL (Mus musculus [5]; [18]) read?
**A.** 0.5 mg/kg-day

**Q.** What about the LOEL (Rattus norvegicus [7]; [20]) of the same compound?
**A.** 100 mg/kg-day

**Q.** And the NOEL (Rattus norvegicus [7]; [20])?
**A.** 10 mg/kg-day

**Q.** And the LOEL (Rattus norvegicus [7]; duration: 7 days, Fischer 344, active + Antiandrogenic + anti-androgenic + PPS delayed by 5 days / single dose tested (liver wt?))?
**A.** 100 mg/kg-day and 200 mg/kg-day

**Q.** What about the LOEL (Rattus norvegicus [7]; duration: 7 days, Long-Evans, active + Antiandrogenic + anti-androgenic + PPS delayed by 5 days / single dose tested (liver wt?)) of the same compound?
**A.** 100 mg/kg-day

**Q.** What about the LOEL (Rattus norvegicus [7]; duration: 7 days, Sprague-Dawley, active + Antiandrogenic + anti-androgenic + PPS delayed by 5 days / single dose tested (liver wt?)) of the same compound?
**A.** 100 mg/kg-day and 200 mg/kg-day

**Q.** What about the LOEL (Rattus norvegicus [7]; duration: 10 days, Sprague-Dawley, active + Negative + Antiandrogenic + anti-androgenic + PPS delayed by 5 days / single dose tested (liver wt?)) of the same compound?
**A.** 100 mg/kg-day

**Q.** What about the NOEL (Rattus norvegicus [7]; duration: 10 days, Wistar, active + Antiandrogenic + anti-androgenic + PPS delayed by 5 days / single dose tested (liver wt?)) of the same compound?
**A.** 16 mg/kg-day and 30 mg/kg-day

**Q.** What about the NOEL (Rattus norvegicus [7]; duration: 10 days, wistar, active + Antiandrogenic + anti-androgenic + PPS delayed by 5 days / single dose tested (liver wt?)) of the same compound?
**A.** 10 mg/kg-day and 16 mg/kg-day and 30 mg/kg-day

— EPA's ToxValDB 9.5
